Test results taken from patent US9750259B2, “Pyroxasulfone and glutamine synthesis inhibitor compositions for weed control” (Valent U.S.A., priority 2014, dated 2017).

Assays:
Horseweed = assay: Field test in Roundup Ready soybeans: control of Horseweed, reading 21 DAT; format: in vivo, Conyza Canadensis; settings: all treatments with MSO 1% v/v, glufosinate 593, pyroxasulfone 90, flumiclorac-pentyl 73 g active/ha, % printed in b55 only
Method: (§1) The following field test was conducted. Roundup Ready soybeans (Glycine max) were used in the test as the crop plant. All of the treatments contained MSO concentrate oil at 1% v/v.
(§2) When the test began, the test plot had weeds that were less than […] tall. Treatments were administered at the concentrations as follows. Glufosinate-ammonium was administered at 593 grams/hectare. Pyroxasulfone was administered at 90 grams/hectare throughout the experiment.
(§3) On 14 DAT, readings were taken to determine the survival of Palmer Amaranth. On 21 DAT, readings were taken to determine the residual control of Palmer Amaranth and Horseweed. Survival ratings were taken by counting the number of alive and dead plants at the time of the reading. All data was analyzed using Bartlett's test and with p value of […] for determining significance of the results. The Effect of Glufosinate and Pyroxasulfone on Weeds.”

Palmer Amaranth [1] = assay: Field test in Roundup Ready soybeans: residual control of Palmer Amaranth, reading 21 DAT; format: in vivo, Amaranthus palmeri; settings: all treatments with MSO 1% v/v, glufosinate 593, pyroxasulfone 90, flumiclorac-pentyl 73 g active/ha, % printed in b55 only
Method: as §1, §2, §3

Palmer Amaranth [2] = assay: Field test in Roundup Ready soybeans: control (kill) of emerged Palmer Amaranth, reading 14 DAT; format: in vivo, Amaranthus palmeri; settings: post emergence, all treatments with MSO 1% v/v, glufosinate 593, pyroxasulfone 90, flumiclorac-pentyl 73 g active/ha, % printed in b55 only
Method: as §1, §2, §3

In the case of `CP(=O)(O)CCC(N)C(=O)O` (racemic) [glufosinate, DL-4-[hydroxy](methyl)phosphinoyl]-DL-homoalaninate], the “Horseweed (bolted) control / kill rate” value (Horseweed) is reported as 75%, the “Residual control of Palmer amaranth” value (Palmer Amaranth [1]) is reported as 93% and the “Palmer amaranth (<2″ tall) control / kill rate” value (Palmer Amaranth [2]) is reported as 90%.
In the case of `Cn1nc(C(F)(F)F)c(CS(=O)(=O)C2=NOC(C)(C)C2)c1OC(F)F` [pyroxasulfone, 3-[[[5-(difluoromethoxy)-1-methyl-3 (trifluoromethyl)-1H-pyrazol-4-yl]methyl]sulfonyl]-4,5-dihydro-5,5-dimethylisoxazole], the “Residual control of Palmer amaranth” value (Palmer Amaranth [1]) is reported as 99% and the “Palmer amaranth (<2″ tall) control / kill rate” value (Palmer Amaranth [2]) is reported as 5%.
